# Reference: paper PMC4176650 (BioMed Research International, 2014)
# “Also recorded” adds a separate entry of the source. Where two headings read alike, the source gives them in different places.
# Columns and labels:
# [1] = molecular target: Bacillus pasteurii urease (Sporosarcina pasteurii, UniProt P41020); experiment: Urease assay and inhibition kinetics, Bacillus pasteurii urease; type: biochemical; set-up: Vmaxapp: unit not given here; settings: for Kmapp: Km without inhibitor 5.1 mM; for Vmaxapp: Vmax without inhibitor 160
# Experimental: (§1) Reaction mixtures comprising 25 μL of enzyme (Jack bean and Bacillus pasteurii ureases) solution and 55 μL of buffers containing urea (2–24 mM for jack bean and Bacillus pasteurii ureases) were incubated with 5 μL of test compounds at 30°C for 4.15 min in 96-well plates. The increasing absorbance at 560 nm was measured after 10 min, using a microplate reader (Molecular Devices, USA). All reactions were performed in triplicate in a final volume of […]. The results (change in absorbance per min.) were processed by using SoftMax Pro software (Molecular Devices, USA). All the assays were performed at pH 6.8 (3 mM sodium phosphate buffer) and 7 μg of phenol red per mL as indicator [10]. Percentage inhibitions were calculated from the formula 100 − (ODtestwell/ODcontrol) × 100. Thiourea was used as the standard inhibitor of urease.
# (§2) The concentration of tested compounds that inhibited the hydrolysis of substrates (Jack bean urease and Bacillus pasteurii ureases) by 50% (IC50) was determined by monitoring the effect of various concentrations of the compounds in the assays on the inhibition values. The IC50 (inhibitor conc. that inhibits 50% activity of both enzymes) values were then calculated using the EZ-Fit Enzyme Kinetics program (Perrella Scientific Inc., Amherst, USA).
# (§3) Dissociation constant/inhibition constant (K i) were determined by the interpretation of Dixon plot. Lineweaver-Burk plot and their secondary replots using initial velocities obtained over a substrate concentration range between 2.0 and 24 mM urea for J.B. and B.P. ureases, respectively. Nonlinear regression equations were used to determine the values of K I, K m, and V max in the Lineweaver-Burk plot and Dixon plots. The K i values dissociation constant/inhibition constant of J.B. urease-inhibitor or B.P. urease-inhibitor complex into free J.B. urease or B.P. urease and inhibitor was determined graphically by Dixon plot and Lineweaver-Burk plots.
# [2] = tested on: Lemna aequinoctialis Welv.; experiment: Lemna phytotoxicity assay; settings: seven days
# Experimental: The assay was performed according to the modified protocol of Bremner. […] Sterilized conical flasks were inoculated with compounds with desired concentrations prepared from the stock solution and allowed to evaporate overnight. Each flask was inoculated with 20 mL of sterilized E-medium and ten Lemna aequinoctialis Welv. each containing a rosette of three fronds. Other flasks were supplemented with methanol serving as negative control and reference inhibitor, that is, phosphoroamide (a urease inhibitor already in commercial use) serving as positive control. The treatments were replicated three times and the flasks incubated at 30°C Fisons Fi-Totron 600 H growth cabinet for seven days, 9000 lux light intensity, 56 ± 10 rh (relative humidity), and 12 h day length. Growth of Lemna aequinocitalis in compound containing flask was determined by counting the number of fronds per dose and growth inhibition calculated with reference to negative control.
# Jack bean urease = Jack bean urease (Canavalia ensiformis, UniProt P07374); experiment: biochemical; settings: for Type of inhibition / Kmapp / Vmaxapp: Urease (JB); for Kmapp: Km without inhibitor 2.5 mM; for Vmaxapp: Vmax without inhibitor 105
# Experimental: as §1, §2, §3
# [3] = Viability of human neutrophils (WST-1); type: cell-based; settings: isolated human neutrophils; human neutrophils 1 × 10^7 cells/mL; conc. 200 µg/mL
# Experimental: Heparinized fresh venous blood was drawn from healthy volunteers in a local blood bank and the neutrophils were isolated by developed method of McLaughlin et al.. 45 The whole blood was mixed with Ficoll-Paque (Pharmacia Biotech Amersham, Uppsala). After sedimentation the unwanted red blood cells (RBCs) were layered as a buffy coat on the cushion of Ficoll (3.0 mL). It was then centrifuged for 30 min. at 1500 rpm, and supernatant was discarded. Further treated with hypotonic ammonium chloride solution (0.83%) to lyse RBCs. The preparation was then centrifuged and the neutrophils were washed with Modified Hank's Solution (MHS) and resuspended at a concentration of 1 × 10^7 cells/mL.
# Isolated human neutrophils (1 × 10^7 cells/mL) were incubated first with test compounds for 30 min., and then after the addition of 0.25 mM WST-1 (Dojindo Laboratories Kumamoto, Japan) in water bath shaker at 37°C [18, 19]. After 3 hrs incubation, change in the absorbance was measured at 450 nm in 96-well plate by using microplate reader Spectra MAX 340 (Molecular Devices, CA, USA). The OD is the mean of the five experimental replicates. The percentage (%) cell viability was calculated by using the following formula: (1) Percentage (%) viability of cells =[…].
# [4] = Urease (BP), Dixon plot and secondary Lineweaver-Burk plot, pH 6.8, 30°C, read-out: Ki (µM) ± SEM
# Bacillus pasteurii urease, sequence (P41021 whole entry): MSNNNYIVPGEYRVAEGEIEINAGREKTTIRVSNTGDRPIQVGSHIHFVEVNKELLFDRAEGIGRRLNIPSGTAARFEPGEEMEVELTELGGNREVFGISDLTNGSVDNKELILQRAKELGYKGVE
# Bacillus pasteurii urease, sequence (P41022 whole entry, further chain): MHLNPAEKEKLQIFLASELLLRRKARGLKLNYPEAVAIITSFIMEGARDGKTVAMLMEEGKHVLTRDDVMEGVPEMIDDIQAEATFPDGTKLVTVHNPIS
# Bacillus pasteurii urease, sequence (P41020 whole entry): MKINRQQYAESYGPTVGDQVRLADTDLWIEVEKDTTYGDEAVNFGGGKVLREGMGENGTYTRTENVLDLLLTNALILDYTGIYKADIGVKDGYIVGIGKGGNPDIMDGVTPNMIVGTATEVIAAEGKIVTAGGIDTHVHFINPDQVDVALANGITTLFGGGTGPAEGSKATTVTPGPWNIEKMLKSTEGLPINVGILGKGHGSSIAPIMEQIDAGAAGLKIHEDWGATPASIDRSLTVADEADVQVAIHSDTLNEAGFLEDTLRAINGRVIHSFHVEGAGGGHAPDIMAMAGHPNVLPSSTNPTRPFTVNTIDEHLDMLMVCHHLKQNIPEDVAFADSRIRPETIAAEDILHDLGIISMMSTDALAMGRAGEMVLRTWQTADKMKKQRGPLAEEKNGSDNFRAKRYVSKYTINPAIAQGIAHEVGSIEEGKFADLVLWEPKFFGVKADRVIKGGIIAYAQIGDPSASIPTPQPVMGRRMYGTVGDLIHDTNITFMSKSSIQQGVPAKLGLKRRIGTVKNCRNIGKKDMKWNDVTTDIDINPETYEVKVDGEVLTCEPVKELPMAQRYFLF
# Jack bean urease, sequence (P07374 whole entry, looked up): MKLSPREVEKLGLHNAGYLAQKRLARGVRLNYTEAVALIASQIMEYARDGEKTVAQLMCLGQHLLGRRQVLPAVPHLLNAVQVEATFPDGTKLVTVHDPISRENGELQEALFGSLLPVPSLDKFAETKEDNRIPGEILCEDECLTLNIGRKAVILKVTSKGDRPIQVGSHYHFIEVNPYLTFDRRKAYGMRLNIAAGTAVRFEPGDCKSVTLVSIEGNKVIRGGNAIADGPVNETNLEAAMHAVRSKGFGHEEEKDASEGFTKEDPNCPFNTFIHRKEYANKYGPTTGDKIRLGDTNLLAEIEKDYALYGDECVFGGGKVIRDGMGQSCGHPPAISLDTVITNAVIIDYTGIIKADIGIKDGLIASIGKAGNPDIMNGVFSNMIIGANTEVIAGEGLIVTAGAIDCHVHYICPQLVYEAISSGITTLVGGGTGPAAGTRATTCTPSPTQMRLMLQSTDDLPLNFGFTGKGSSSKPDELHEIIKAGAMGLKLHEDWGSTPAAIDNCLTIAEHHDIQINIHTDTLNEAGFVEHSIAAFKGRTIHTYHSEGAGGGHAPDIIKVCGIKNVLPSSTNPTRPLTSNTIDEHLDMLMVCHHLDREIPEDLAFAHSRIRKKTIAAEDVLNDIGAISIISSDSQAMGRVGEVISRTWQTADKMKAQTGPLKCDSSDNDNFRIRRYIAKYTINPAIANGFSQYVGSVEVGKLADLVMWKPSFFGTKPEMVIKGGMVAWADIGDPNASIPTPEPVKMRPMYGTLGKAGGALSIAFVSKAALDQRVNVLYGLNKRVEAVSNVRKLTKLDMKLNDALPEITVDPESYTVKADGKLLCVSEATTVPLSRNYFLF
Compound,Type of inhibition ([1]; Urease (BP)),"Ki [1, 4] [µM]",Kmapp ([1]; Urease (BP)) [mM],Vmaxapp ([1]; Urease (BP)),Lemna Welv. phytotoxicity (growth inhibition) ([2]; conc. of compound 10 μg/mL),Lemna Welv. phytotoxicity (growth inhibition) ([2]; conc. of compound 100 μg/mL),Lemna Welv. phytotoxicity (growth inhibition) ([2]; conc. of compound 1000 μg/mL),Ki (Jack bean urease) [µM],Type of inhibition (Jack bean urease),Kmapp (Jack bean urease) [mM],Vmaxapp (Jack bean urease),viability at 200 µg/mL [3] [%],selectivity between B.P. urease and J.B. urease ([1]; comparison of potency against both ureases),Ki [1] [µM]
COc1cccc(C(c2c(O)c3ccccc3oc2=O)c2c(O)c3ccccc3oc2=O)c1 [compound 1],competitively; also recorded: Competitive,15.5 ± 0.2,11.3,159.3,9.9,60.3,80,19.3 ± 0.1,Competitive,5.6,109,67.5 ± 3.1,–,–
O=c1oc2ccccc2c(O)c1C(c1ccncc1)c1c(O)c2ccccc2oc1=O [compound 2],Noncompetitive,51.3 ± 0.4,5.2,98.0,6.5,33,52.7,71 ± 0.3,Competitive,7.7,106,85.1 ± 2.5,–,–
CC(c1c(O)c2ccccc2oc1=O)c1c(O)c2ccccc2oc1=O [compound 3],Uncompetitive,53 ± 0.01,4.0,115.3,6.4,22.5,54.8,59.4 ± 0.1,Competitive,8.3,108,100 ± 1,–,–
C/C=C/C(c1c(O)c2ccccc2oc1=O)c1c(O)c2ccccc2oc1=O [compound 4],Uncompetitive,48.3 ± 0.01,3.8,101.0,38.23,100,–,65.9,Competitive,9.1,105,13.2 ± 4.2,–,–
O=c1oc2ccccc2c(O)c1C(c1cc[nH]c1)c1c(O)c2ccccc2oc1=O [compound 5],Uncompetitive,68.1 ± 0.3,3.9,93.7,9.00,25.00,61.4,53.3 ± 0.4,Competitive,7.8,103,100 ± 0.5,selective for J.B. uraese,–
CCCCC(c1c(O)c2ccccc2oc1=O)c1c(O)c2ccccc2oc1=O [compound 6],competitively; also recorded: Competitive,27.5,13.0,159.2,10.60,42.50,69.6,75 ± 0.1,Competitive,9.5,106,45.5 ± 4,–,–
O=c1oc2ccccc2c(O)c1Cc1c(O)c2ccccc2oc1=O [compound 7],competitively; also recorded: Competitive,–,9.9,162.5,–,–,–,15 ± 0.1,Competitive,7.6,102,100 ± 4.3,–,13.3 ± 0.2
O=c1oc2ccccc2c(O)c1C(/C=C/c1ccccc1)c1c(O)c2ccccc2oc1=O [compound 8],competitively; also recorded: Competitive,19 ± 0.1,7.7,161.7,13.00,22.99,70.0,21.5,Competitive,7.5,104,100 ± 5.2,–,–
O=c1oc2ccccc2c(O)c1C(c1c(O)c2ccccc2oc1=O)c1c[nH]c2ccccc12 [compound 9],Uncompetitive,59.5 ± 0.2,3.2,97.2,41.66,50.00,–,62.9 ± 0.5,Competitive,11.6,108,100 ± 5.2,–,–
O=c1oc2ccccc2c(O)c1C(c1cccnc1)c1c(O)c2ccccc2oc1=O [compound 10],competitively,63.6 ± 0.2,10.3,–,23.8,47.6,57.14,68 ± 0.1,Competitive,10.6,105,95.4 ± 5.2,–,–
